Data: paper PMC3753068 (Small (Weinheim an der Bergstrasse, Germany), 2012)
Where a SMILES comes first, the peptide text is derived from it. The star is where a group is joined. X1 = O=C(CCCCCCCCCCS)NCCCOCCOCCOCCCN*

Assay: Stability of peptides in human serum
Assay type: in vitro ADME

For `CC(=O)N[C@@H](CC(=O)O)C(=O)N[C@@H](CC(C)C)C(=O)N[C@@H](Cc1c[nH]c2ccccc12)C(=O)N[C@@H](CCCCN)C(=O)N[C@@H](CC(C)C)C(=O)NCCCOCCOCCOCCCNC(=O)CCCCCCCCCCS` [Compound 1] (Ac-DLWKL-X1; C-terminus assumed), the half-life was 17.5 min.
